Patent US6703421B1, “Methods of using phenylmethylbenzoquinone and hydroquinone compounds for treatment of myocarditis, dilated cardiomyopathy and heart failure” (Daiichi Suntory Pharma Co., Ltd., priority 1999, dated 2004)
Where two headings read alike, the source gives them in different places.

Key:
[1] = test system: EMC virus-inoculated DBA/2 mice (viral myocarditis); test: Histopathology of heart (cardiac necrosis, cellular infiltration) in murine myocarditis model; assay type: in vivo, mouse; settings: 30 mg/kg, hearts on days 7 and 8, score 0-4, vs control group; FIG. 5
Protocol: NF-κB inhibitor (compound of Production Example 7) was administered at 30 mg/kg body weight using the similar method as Example 3 to the mouse myocarditis model prepared in the similar manner as Example 2. The whole hearts of those mice alive on days 7 and 8 (n=10) were extripated, exsanguinated and washed with phosphate-buffered saline. Subsequently, paraffin embedded and sectioned specimens were prepared by fixing the tissue with 10% formalin. The specimens were stained with hematoxylin-eosin stain followed by examination of histopathological findings.
In cross-sectional images taken along the minor axis of the left ventricle under light microscopy, the percentage of cardiac necrosis features or cellular infiltration was classified into 0 (no damage), 1 (less than 25%), 2 (25% to less than 50%), 3 (50% to less than 75%) and 4 (75% or more), and respectively observed by two observers. The evaluations of the two observers were averaged to obtain a single evaluation. The results obtained were tested for the presence of a significant difference by analysis of variance (ANOVA) according to Bonferroni's multiple comparison method, and statistical significance was defined as p<0.05.
Test group (n=10): Administration of NF-κB inhibitor (Production Example 7) at 30 mg/kg body weight

TNF-α = TNF-α mRNA level in heart by TaqMan PCR, murine myocarditis model; assay type: in vivo, mouse; settings: 30 mg/kg intraperitoneally daily for 5 days, heart day 5, corrected with GAPDH, vs infected control; FIG. 6
Protocol: (§1) Four-week-old DBA/2 male mice were inoculated with EMC virus in the same manner as Example 3 followed by intraperitoneal administration of the compound of Production Example 7 dissolved in 10% DMSO or 10% DMSO only daily for 5 days starting 2 hours after inoculation. The whole hearts were excised from mice of the Production Example 7 compound group, 10% DMSO group and non-infected group on day 5 of viral infection, and after extracting RNA using ISOGEN (Wako Pure Chemical Industries), cDNA was obtained in accordance with the procedure of the SuperScript Preamplification System (Lifetech Oriental). The mRNA levels of TNF-α, IL-1β and iNOS were assayed by TaqMan PCR using this cDNA as templates. Detection was performed using the PRISM7700 (PE Biosystems Japan) in accordance with the protocol of the PCR assay system (PE Biosystems Japan). The following primers and TaqMan probes were used for detection.
(§2) The amount of RNA of each sample was corrected with the amount of glyceraldehyde-3-phosphate dehydrogenase (GAPDH) gene.
(§3) Infected group (administered compound of Production Example 7) (n=10) Administration of NF-κB inhibitor (Production Example 7) at 30 mg/kg body weight

IL-1β = IL-1β mRNA level in heart by TaqMan PCR, murine myocarditis model; assay type: in vivo, mouse; settings: 30 mg/kg intraperitoneally daily for 5 days, heart day 5, corrected with GAPDH, vs infected control; FIG. 6
Protocol: as §1, §2, §3

NF-κB = NF-κB luciferase reporter assay in A549/NF-κBLuc cells; assay type: cell-based, human; settings: Homo sapiens, A549/NF-κBLuc, luciferase activity
Protocol: Using lipofectamine (Lifetech Oriental K. K., Tokyo) according to the conventional method, human lung cancer cell line A549 cells (ATCC catalog no. CCL185), which are known to express hiNOS by cytokine stimulation, were co-transfected with pNFκB-Luc, which are plasmid controlled by a NF-κB binding consensus sequence, and pSV2neo (Clontech, U.S.A.), and then A549/NF-κBLuc, the cell that has stably introduced pNFκB-Luc, was selected by adding G418 sulfate (1 mg/ml, Lifetech Oriental K. K.) to the culture medium.
The luciferase activity was measured using the Luciferase Assay System (Promega, U.S.A.).

[2] = test system: EMC virus-inoculated DBA/2 mice (viral myocarditis); test: Survival rate in murine viral myocarditis model; assay type: in vivo, mouse; settings: 10% DMSO, Kaplan-Meier p<0.05, FIG. 3
Protocol: Viral myocarditis mice were prepared using the procedure described below in accordance with a known method (Shioi T. et al. (1997) J. Mol. Cell. Cardiol., 29, 2327-2334). Variant M (acquired from the American Type Culture Collection) was used for the EMC virus for inoculation and prepared to 100 pfu/ml in Eagle's MEM medium (Nissui Pharmaceutical). Four-week-old DBA/2 male mice were divided into two groups, and intraperitoneally inoculated with EMC virus at 10 pfu/animal. Test compound was then administered intraperitoneally and daily for 14 days under the following conditions to each group starting 3 hours after inoculation.
The test compound was used after dissolving in 0.5% aqueous gum arabic solution (3 mg/ml). In the present example, the compound of Production Example 4 was used in the test as the NF-κB inhibitor.
Test group (n=10): Administration of NF-κB inhibitor (Production Example 4) at 30 mg/kg body weight Control group (n=10): 0.5% aqueous gum arabic solution
The experiment was conducted in the following three groups using the same method as Example 2 and the compound of Production Example 7 for the NF-κB inhibitor. The test compound was used after dissolving in 10% aqueous dimethylsulfoxide solution (DMSO) (test group 1: 0.3 mg/ml, test group 2: 3 mg/ml). The survival rates were tested for the presence of a significant difference according to the Kaplan-Meier method, and statistical significance was defined as p<0.05.
Test group 1 (n=21): Administration of NF-κB inhibitor (Production Example 7) at 3 mg/kg body weight
Test group 2 (n=21): Administration of NF-κB inhibitor (Production Example 7) at 30 mg/kg body weight
Four-week-old DBA/2 male mice were inoculated with EMC virus using the same method as Example 2, and the test compound was administered orally and daily for 14 days under the following conditions to each group starting 2 hours after inoculation.
The test compound was used after dissolving in 10% aqueous sulfobutylcyclodextrin solution (3 mg/ml). In the present example, the compound of Production Example 44 was used in the test as the NF-κB inhibitor.
Test group (n=20): Administration of NF-κB inhibitor (Production Example 44) at 30 mg/kg body weight

iNOS = iNOS mRNA level in heart by TaqMan PCR, murine myocarditis model; assay type: in vivo, mouse; settings: 30 mg/kg intraperitoneally daily for 5 days, heart day 5, corrected with GAPDH, vs infected control; FIG. 6
Protocol: as §1, §2, §3

rat adjuvant arthritis = settings: Pierce J W, et al. (1997) J. Biol. Chem. 272, 21096-21103; cited from earlier work

| SMILES | cardiac necrosis [1] | cellular infiltration [1] | expression of TNF-α at the mRNA level (TNF-α) | expression of IL-1β at the mRNA level (IL-1β) | IC50 (NF-κB; IL-1β (1 ng/ml) for 4 hours, read-out: IC50 (μM) IL-1 stimulation) | IC50 (NF-κB; TNF-α (500 ng/ml) for 4 hours, read-out: IC50 (μM) TNF stimulation) | survival rate ([2]; 3 mg/kg intraperitoneally daily for 14 days) | survival rate ([2]; 30 mg/kg intraperitoneally daily for 14 days) | expression of iNOS at the mRNA level (iNOS) | effect in rat adjuvant arthritis (rat adjuvant arthritis) |
| --- | --- | --- | --- | --- | --- | --- | --- | --- | --- | --- |
| COC1=C(OC)C(=O)C(Cc2ccc(CCC(=O)N3CCCCC3)cc2)=C(C)C1=O [Prod. Ex. 7] | significantly inhibited | significantly inhibited | significantly inhibited | significantly inhibited | 4 µM | 10 µM | significantly improve survival rate | significantly improve survival rate | significantly inhibited |  |
| CC(C)(C)c1ccc(S(=O)(=O)/C=C/C#N)cc1 [BAY11-7083] |  |  |  |  |  |  |  |  |  | exhibit an effect |
